Measurements published in patent US20100273769A1, “COMPOSITION AND METHOD FOR THE TREATMENT OF PARKINSON'S DISEASE” (priority 2009, published 2010).
Like-named read-outs stand apart in the source and are kept apart here. Values belong to the compound of their own block, whether it stands above or below them.

Legend:
wildtype human LRRK2 = target: T1, wildtype human LRRK2 (Homo sapiens, UniProt Q5S007); experiment: Adapta assay, inhibition of wildtype human LRRK2 kinase fragment with LRRKtide; type: biochemical
T1 construct: human LRRK2 protein fragment encompassing amino acids 1326 to 2527; GST; made in house
T1 sequence (Q5S007 1326-2527): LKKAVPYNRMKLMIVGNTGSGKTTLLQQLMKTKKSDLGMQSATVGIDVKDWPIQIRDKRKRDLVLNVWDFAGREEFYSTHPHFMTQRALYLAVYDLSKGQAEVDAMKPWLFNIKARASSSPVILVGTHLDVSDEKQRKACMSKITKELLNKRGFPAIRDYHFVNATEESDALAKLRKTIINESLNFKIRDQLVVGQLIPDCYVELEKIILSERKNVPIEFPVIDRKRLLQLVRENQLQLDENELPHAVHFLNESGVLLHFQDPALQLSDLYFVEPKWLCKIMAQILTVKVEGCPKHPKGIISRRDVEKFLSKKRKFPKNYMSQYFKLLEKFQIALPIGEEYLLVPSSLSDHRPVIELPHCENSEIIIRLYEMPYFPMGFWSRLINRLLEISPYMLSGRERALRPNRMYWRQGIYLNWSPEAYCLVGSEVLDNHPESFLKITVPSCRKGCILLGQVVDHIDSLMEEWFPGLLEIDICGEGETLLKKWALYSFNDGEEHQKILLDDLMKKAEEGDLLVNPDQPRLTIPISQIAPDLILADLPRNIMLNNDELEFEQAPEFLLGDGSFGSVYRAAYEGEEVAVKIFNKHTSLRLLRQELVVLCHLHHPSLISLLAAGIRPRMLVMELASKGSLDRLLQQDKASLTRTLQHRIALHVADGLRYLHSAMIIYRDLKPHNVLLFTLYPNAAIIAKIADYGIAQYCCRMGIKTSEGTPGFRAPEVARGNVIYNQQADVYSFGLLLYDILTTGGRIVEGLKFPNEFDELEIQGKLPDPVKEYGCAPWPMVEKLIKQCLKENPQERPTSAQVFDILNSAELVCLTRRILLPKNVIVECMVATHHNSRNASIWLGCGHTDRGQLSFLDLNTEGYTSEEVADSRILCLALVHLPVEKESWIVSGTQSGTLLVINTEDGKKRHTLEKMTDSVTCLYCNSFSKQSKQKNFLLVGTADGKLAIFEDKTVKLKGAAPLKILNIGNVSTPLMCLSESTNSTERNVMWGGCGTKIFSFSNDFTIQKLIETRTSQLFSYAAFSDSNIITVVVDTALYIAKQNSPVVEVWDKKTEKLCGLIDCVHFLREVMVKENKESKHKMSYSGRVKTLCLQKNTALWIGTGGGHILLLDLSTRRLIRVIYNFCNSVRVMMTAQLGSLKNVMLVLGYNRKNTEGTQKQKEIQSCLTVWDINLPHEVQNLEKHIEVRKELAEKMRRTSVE

ERK2 = ERK2 (Homo sapiens, UniProt P28482); experiment: Kinase specificity, ERK2; type: biochemical; conditions: 100 μM ATP
PKC = experiment: Kinase specificity, PKC; type: biochemical; conditions: 100 μM ATP
GSK3 = experiment: Kinase specificity, GSK3; type: biochemical; conditions: 100 μM ATP
LRRK2 = LRRK2 (Homo sapiens, UniProt Q5S007); conditions: Covy and Giasson 2009; Anand et al. 2009; cited from earlier work
PKA = experiment: Kinase specificity, PKA; type: biochemical; conditions: 100 μM ATP
Cdk1 = Cdk1 (Homo sapiens, UniProt P06493); experiment: Kinase specificity, Cdk1; type: biochemical; conditions: 100 μM ATP
[1] = system: R1441C LRRK2 transgenic C. elegans; experiment: Food-sensing (slowing) response in LRRK2 transgenic C. elegans; type: in vivo; conditions: 2 mM added to the assay, FIG. 5 inset
Description: Dopaminergic neurons in C. elegans are involved in food sensing behavior such that in the absence of food worms move more rapidly, as assessed by determining their bending frequency on an agar plate not supplied with food. In an established assay the animals are then exposed to food, and the difference in motility is recorded in the form of bending frequency [Sawin et al., Neuron 26, 619-631 (2000)]. […] In approximate synchrony with the dopaminergic neurodegeneration this slowing response is essentially eliminated after 4 days. […] The slowing response can be reconstituted to a substantial degree by supplementation with dopamine, confirming that the phenotype is due to loss of dopaminergic input (FIG. 5).
The clear-cut functional phenotype of this model can be used to determine the efficacy of LRRK2 kinase inhibitors and the accurate determination of their potency in a biological context. […] The potency is expressed as the half-maximal restoration of the slowing response. […]
The functional consequence of dopaminergic neurodegeneration was assayed using the food-sensing response resulting in a slowing of motility after food exposure as assessed by the frequency of body bending within 20 second intervals in groups of 10 animals [Sawin et al., Neuron 26, 619-631 (2000)]. […]

[2] = Lethal plasma concentration after single dosing; type: in vivo; conditions: read-out: LC50 as plasma concentration

Sequence of Cdk1 (P06493 whole entry, species assumed): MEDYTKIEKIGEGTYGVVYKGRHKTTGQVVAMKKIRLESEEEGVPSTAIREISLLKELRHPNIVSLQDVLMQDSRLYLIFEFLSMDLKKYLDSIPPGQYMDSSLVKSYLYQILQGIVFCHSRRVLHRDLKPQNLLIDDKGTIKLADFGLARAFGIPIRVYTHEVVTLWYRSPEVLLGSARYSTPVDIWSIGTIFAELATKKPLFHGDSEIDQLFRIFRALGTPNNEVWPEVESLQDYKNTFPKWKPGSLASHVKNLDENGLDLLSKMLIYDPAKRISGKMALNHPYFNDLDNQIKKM
Sequence of Cdk1 (P14635 whole entry partner, species assumed): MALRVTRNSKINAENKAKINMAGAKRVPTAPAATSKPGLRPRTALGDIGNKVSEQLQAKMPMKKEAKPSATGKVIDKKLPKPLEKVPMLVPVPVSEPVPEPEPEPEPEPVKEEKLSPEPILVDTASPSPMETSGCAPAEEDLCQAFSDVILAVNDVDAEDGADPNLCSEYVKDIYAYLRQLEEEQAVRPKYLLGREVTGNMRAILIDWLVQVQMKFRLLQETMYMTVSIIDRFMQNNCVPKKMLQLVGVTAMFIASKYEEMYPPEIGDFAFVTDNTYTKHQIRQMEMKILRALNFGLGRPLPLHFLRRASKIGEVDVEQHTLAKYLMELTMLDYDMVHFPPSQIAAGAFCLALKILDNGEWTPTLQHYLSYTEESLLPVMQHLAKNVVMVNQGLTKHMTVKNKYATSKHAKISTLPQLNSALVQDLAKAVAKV
Sequence of ERK2 (P28482 whole entry, species assumed): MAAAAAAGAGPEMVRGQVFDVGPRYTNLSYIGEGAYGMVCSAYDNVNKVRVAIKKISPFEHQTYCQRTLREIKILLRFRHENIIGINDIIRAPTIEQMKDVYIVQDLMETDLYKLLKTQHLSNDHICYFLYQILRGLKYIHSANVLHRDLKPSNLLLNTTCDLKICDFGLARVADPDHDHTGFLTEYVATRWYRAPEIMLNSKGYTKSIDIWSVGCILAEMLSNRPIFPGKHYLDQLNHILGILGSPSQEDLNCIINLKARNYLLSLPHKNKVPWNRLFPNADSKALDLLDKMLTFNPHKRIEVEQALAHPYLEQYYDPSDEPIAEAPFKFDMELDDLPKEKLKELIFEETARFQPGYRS
Sequence of LRRK2 (Q5S007 whole entry): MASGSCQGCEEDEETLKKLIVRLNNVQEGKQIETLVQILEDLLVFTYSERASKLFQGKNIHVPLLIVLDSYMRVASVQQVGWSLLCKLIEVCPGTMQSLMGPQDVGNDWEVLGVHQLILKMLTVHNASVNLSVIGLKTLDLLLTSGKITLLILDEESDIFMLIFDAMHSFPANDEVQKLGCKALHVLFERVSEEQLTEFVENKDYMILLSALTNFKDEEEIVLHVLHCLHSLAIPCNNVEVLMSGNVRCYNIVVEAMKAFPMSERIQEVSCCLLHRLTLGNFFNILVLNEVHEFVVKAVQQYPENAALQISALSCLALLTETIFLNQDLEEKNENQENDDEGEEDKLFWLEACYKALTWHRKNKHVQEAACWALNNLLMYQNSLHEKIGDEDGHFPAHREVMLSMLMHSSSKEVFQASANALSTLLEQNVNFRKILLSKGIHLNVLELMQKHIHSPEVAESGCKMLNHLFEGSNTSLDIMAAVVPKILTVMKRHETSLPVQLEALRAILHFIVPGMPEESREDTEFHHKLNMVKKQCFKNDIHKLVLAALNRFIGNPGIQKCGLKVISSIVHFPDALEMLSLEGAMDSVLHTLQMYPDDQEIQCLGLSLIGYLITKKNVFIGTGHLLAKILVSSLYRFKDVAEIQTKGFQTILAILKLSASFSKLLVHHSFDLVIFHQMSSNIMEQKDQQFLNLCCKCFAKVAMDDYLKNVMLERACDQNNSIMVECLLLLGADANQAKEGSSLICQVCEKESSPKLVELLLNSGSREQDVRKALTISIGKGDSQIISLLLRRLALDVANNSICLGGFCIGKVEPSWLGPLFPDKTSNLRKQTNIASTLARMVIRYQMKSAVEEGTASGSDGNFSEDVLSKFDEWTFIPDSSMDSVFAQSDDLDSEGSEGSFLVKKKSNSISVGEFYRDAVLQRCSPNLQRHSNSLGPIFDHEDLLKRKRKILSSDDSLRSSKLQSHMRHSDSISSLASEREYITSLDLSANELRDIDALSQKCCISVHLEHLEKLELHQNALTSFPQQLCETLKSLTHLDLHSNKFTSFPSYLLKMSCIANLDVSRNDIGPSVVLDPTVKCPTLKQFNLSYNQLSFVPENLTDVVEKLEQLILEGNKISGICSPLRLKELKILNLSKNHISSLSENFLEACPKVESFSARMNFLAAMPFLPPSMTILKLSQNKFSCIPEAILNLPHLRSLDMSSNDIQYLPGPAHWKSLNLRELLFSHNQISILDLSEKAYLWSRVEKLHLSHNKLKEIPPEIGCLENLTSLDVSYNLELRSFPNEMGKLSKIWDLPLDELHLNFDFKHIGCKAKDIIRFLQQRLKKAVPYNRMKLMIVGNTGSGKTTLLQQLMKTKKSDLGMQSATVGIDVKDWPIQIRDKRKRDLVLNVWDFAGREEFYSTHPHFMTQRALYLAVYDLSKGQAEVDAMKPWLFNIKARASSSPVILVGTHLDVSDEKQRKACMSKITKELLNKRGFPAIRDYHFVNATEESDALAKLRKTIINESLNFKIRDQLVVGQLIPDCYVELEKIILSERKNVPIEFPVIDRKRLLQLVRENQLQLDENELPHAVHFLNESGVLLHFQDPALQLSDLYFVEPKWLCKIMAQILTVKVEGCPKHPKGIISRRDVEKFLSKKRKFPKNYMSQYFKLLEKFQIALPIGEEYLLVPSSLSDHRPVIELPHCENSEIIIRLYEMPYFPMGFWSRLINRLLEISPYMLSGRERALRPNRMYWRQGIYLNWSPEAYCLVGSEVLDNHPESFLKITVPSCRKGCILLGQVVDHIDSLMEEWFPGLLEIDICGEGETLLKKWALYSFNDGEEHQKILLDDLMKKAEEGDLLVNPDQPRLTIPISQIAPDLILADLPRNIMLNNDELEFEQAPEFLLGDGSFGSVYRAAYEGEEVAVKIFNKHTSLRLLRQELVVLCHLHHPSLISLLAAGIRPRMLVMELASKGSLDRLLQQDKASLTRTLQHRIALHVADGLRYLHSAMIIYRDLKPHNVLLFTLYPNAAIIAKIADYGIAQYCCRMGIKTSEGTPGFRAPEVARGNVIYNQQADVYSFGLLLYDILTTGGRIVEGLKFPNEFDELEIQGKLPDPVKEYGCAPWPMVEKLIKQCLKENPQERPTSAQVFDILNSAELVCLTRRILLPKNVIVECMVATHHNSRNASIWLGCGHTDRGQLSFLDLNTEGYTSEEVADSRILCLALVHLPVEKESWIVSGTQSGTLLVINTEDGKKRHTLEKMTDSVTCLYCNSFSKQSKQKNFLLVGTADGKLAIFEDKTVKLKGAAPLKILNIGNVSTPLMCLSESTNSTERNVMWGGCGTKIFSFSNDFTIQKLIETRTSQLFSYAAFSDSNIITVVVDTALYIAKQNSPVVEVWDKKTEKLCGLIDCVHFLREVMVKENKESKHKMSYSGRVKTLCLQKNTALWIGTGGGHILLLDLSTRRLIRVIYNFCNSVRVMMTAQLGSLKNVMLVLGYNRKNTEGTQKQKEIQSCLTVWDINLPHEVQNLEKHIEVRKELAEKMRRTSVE

Structure (SMILES): COC(=O)[C@@]1(O)C[C@H]2O[C@]1(C)n1c3ccccc3c3c4c(c5c6ccccc6n2c5c31)C(=O)NC4 [Compound K252a, K252a, reference compound]
- IC50 (ERK2): 120 nM
- IC50 (PKC): 5000 nM
- IC50 (GSK3): > 10000 nM
- Activity as inhibitor of LRRK2 (LRRK2): active as inhibitors of LRRK2
- IC50 (PKA): 3400 nM
- IC50 (Cdk1): 310 nM
- IC50 (wildtype human LRRK2): 220 nM
- Potency for LRRK2 inhibition lower than that of compound 5 (wildtype human LRRK2; direct comparison): more than 2 orders of magnitude

Structure (SMILES): Cl.NCCc1ccc(O)c(O)c1 [dopamine hydrochloride, reference compound]
- Loss of the food-sensing response in impaired LRRK2 worms [1]: partially rescued

Structure (SMILES): CC12OC(C[C@]1(N)CO)n1c3ccccc3c3c4c(c5c6ccccc6n2c5c31)CNC4=O (stereo partly drawn) [Compound 13]
- IC50 (wildtype human LRRK2; 100 μM ATP, read-out: LRRK2): 1 nM

Structure (SMILES): COC(=O)[C@@]1(N)CC2OC1(C)n1c3ccccc3c3c4c(c5c6ccccc6n2c5c31)C(=O)NC4 (stereo partly drawn) [Compound 5]
- IC50 (ERK2): 350 nM
- IC50 (Cdk1): 260 nM
- IC50 (wildtype human LRRK2; 100 μM ATP, read-out: LRRK2): 1 nM
- IC50 (wildtype human LRRK2; 100 microM ATP, read-out: LRRK2 inhibitory potency (essentially receptor-limited)): ≤ 1 nM

Structure (SMILES): CN[C@@H]1C[C@H]2O[C@@](C)([C@@H]1OC)n1c3ccccc3c3c4c(c5c6ccccc6n2c5c31)C(=O)NC4 [staurosporine]
- LC50 [2]: 200 to 300 nM
- Activity as inhibitor of LRRK2 (LRRK2): active as inhibitors of LRRK2

The next lines start with the values.

- IC50 (wildtype human LRRK2; 100 μM ATP, read-out: LRRK2): 1.2 nM
Structure (SMILES): CNC(=O)[C@@]1(N)CC2OC1(C)n1c3ccccc3c3c4c(c5c6cc(Br)ccc6n2c5c31)C(=O)NC4 (stereo partly drawn) [Compound 14]

- IC50 (wildtype human LRRK2; 100 μM ATP, read-out: LRRK2): 1.5 nM
Structure (SMILES): CNC(=O)C1(N)CC2OC1(C)n1c3ccc(Br)cc3c3c4c(c5c6cc(Br)ccc6n2c5c31)C(=O)NC4 (stereo not drawn) [Compound 15]
